# Read-outs that look alike come from different tables or passages of the source.
# Tests used:
# [1] = target: MDR1 (wild type) (Homo sapiens, UniProt P08183, G185V/S893A); experiment: in vitro
# [2] = test system: P-gp (MDR11199, G1199A) in recombinant LLC-PK1 cells; conditions: human, LLC-PK1
# [3] = test system: LLC-PK1 control cells
# [4] = target: MDR1 (1199A variant) (Homo sapiens, UniProt P08183, G185V/S400N/S893A); experiment: Intracellular uptake of HIV protease inhibitors; conditions: recombinant LLC-PK1 cells expressing MDR1-1199A
# [5] = target: MDR1-1199A in recombinant LLC-PK1 cells (Homo sapiens, UniProt P08183, G185V/S400N/S893A)
# [6] = target: MDR1-wt in recombinant LLC-PK1 cells (Homo sapiens, UniProt P08183, G185V/S893A)
# [7] = test system: LLC-PK1 control cells; experiment: Intracellular uptake of HIV protease inhibitors; format: in vitro ADME, porcine
# [8] = test system: HEK negative control cells; experiment: Cytotoxic drug sensitivity assay (MTS); format: cell-based, human; conditions: HEK Control; 72hours, MTS; read-out: EC50 (Mean ± S.D.)
# [9] = test system: HEK - MDR1 G1199A cells
# [10] = test system: HEK - MDR1 G1199T cells; experiment: Cytotoxic drug sensitivity assay (MTS); format: cell-based, human; conditions: HEK MDR1 G1199T; 72hours, MTS; read-out: EC50 (Mean ± S.D.)
# [11] = test system: HEK - MDR1 WT cells; experiment: Cytotoxic drug sensitivity assay (MTS); format: cell-based, human; conditions: HEK MDR1 WT; 72hours, MTS; read-out: EC50 (Mean ± S.D.)
# [12] = protease inhibitor + GF120918 (1 μM)
# Chain of MDR1-1199A in recombinant LLC-PK1 cells (P08183 whole entry G185V/S400N/S893A): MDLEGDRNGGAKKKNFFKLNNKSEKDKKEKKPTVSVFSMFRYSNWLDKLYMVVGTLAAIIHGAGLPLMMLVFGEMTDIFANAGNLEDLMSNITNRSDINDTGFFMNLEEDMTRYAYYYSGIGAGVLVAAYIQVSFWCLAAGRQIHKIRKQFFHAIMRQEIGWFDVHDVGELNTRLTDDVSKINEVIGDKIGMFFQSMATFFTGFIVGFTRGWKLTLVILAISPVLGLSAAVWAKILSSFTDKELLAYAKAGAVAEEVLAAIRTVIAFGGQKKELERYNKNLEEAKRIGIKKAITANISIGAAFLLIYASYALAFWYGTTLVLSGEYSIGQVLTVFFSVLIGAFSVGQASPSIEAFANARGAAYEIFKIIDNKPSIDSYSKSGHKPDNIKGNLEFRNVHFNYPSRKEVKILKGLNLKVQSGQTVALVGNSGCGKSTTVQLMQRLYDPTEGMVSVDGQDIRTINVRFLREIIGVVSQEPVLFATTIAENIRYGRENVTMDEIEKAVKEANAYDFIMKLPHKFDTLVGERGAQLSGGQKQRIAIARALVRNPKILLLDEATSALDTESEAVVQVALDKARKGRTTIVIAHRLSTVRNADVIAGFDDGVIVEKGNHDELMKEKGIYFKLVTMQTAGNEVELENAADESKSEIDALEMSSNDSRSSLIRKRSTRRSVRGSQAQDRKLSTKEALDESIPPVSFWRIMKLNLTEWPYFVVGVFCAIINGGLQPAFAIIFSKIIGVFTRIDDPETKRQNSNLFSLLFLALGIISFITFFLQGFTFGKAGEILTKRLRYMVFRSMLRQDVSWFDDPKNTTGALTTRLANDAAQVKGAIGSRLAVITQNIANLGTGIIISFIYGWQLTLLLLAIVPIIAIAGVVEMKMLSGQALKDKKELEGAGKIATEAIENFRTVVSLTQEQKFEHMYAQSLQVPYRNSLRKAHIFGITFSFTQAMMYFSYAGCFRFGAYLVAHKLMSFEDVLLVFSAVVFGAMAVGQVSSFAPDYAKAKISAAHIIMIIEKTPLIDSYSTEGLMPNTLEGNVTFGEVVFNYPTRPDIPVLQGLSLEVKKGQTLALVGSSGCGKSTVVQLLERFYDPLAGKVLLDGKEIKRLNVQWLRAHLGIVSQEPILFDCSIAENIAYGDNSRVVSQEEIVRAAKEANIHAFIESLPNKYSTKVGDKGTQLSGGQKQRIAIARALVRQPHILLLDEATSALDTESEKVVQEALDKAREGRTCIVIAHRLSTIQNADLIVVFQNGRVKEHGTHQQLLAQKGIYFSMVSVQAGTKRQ
# Chain of MDR1 (1199A variant) (P08183 whole entry G185V/S400N/S893A): as above
# Chain of MDR1 (wild type) (P08183 whole entry G185V/S893A): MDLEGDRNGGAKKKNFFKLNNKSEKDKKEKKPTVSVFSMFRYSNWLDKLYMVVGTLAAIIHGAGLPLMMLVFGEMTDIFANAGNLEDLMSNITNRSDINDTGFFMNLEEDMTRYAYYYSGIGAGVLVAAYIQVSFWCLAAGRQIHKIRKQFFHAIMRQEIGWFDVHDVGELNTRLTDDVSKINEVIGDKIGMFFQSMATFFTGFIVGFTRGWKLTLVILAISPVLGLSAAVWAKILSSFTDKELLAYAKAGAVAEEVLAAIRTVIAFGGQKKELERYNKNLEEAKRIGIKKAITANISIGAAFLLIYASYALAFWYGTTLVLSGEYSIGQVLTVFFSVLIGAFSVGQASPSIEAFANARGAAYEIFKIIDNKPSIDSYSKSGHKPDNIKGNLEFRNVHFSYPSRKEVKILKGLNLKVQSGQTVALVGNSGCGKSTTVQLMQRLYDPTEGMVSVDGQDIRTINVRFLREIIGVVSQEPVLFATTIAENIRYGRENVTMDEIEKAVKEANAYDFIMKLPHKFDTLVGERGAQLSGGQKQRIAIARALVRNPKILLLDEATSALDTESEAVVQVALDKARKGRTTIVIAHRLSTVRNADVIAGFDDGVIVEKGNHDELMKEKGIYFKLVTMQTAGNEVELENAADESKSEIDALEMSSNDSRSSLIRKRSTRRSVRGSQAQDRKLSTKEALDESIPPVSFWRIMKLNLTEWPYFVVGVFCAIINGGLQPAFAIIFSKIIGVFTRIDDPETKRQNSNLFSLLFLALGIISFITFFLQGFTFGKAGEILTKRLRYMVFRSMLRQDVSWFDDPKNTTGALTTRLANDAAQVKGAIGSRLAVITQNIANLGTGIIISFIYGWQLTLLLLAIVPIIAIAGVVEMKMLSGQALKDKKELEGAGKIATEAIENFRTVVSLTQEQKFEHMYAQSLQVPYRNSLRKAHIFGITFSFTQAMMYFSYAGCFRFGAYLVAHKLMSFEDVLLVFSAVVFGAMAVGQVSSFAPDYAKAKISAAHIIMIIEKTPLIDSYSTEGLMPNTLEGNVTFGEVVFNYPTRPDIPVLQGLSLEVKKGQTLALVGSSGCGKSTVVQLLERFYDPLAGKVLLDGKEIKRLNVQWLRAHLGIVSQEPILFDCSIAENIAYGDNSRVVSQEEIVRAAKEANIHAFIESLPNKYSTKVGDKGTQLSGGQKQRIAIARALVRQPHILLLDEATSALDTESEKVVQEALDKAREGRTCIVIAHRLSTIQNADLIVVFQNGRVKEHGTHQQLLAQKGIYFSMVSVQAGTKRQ
# Chain of MDR1-wt in recombinant LLC-PK1 cells (P08183 whole entry G185V/S893A): as above
Compound,Km [1] [µM],decrease in apical-to-basolateral flux in MDR11199 cells compared to MDR1wt cells [2] [fold],"Rate of transfer dQ/dt ± s.d., A → B [3, 12]","Rate of transfer dQ/dt ± s.d., B → A [3, 12]","Rate of transfer dQ/dt ± s.d., A → B ([3]; protease inhibitor alone, 5 μM)","Rate of transfer dQ/dt ± s.d., B → A ([3]; protease inhibitor alone, 5 μM)",Km [4] [µM],Vmax [5] [pmole/min*10^6 cells],Vmax [6] [pmole/min*10^6 cells],Km [7] [µM],Vmax [7] [pmole/min*10^6 cells],EC50 [8] [µM],EC50 [9] [µM],EC50 [10] [µM],EC50 [11] [µM]
CC(C)(C)NC(=O)[C@@H]1C[C@@H]2CCCC[C@@H]2CN1C[C@@H](O)[C@H](Cc1ccccc1)NC(=O)[C@H](CC(N)=O)NC(=O)c1ccc2ccccc2n1 [saquinavir],18,2.3,3.48 ± 0.57,7.36 ± 0.60,3.02 ± 0.35,8.03 ± 0.51,14.5,1.00,1.13,2,1.47,,,,
ivermectin,,,,,,,,,,,,4.1 ± 0.21,4.04 ± 0.0776,3.84 ± 0.307,3.809 ± 0.0273

# Reference: patent US7445897B2, “Sequence variants of multi-drug resistance genes, MDR1 and MRP1, and methods for assessment of drug penetration and disposition” (University of Washington, priority 2004, dated 2008)
